From patent US20240365781A1, “SYNERGISTICALLY EFFECTIVE HERBICIDE COMPOSITION COMPRISING PELARGONIC ACID AND FLAZASULFURON” (Belchim Crop Protection NV, priority 2017, published 2024)

Experiments:
Format in all cases: in vivo
Geranium dissectum = experiment: post-emergence test, pot trial (Examples 1-5); conditions: 28 d, PT, pelargonic acid 10880 g/ha, 16 L/ha
Excerpt: (§1) The expected activity of a given combination of two or three herbicides can be calculated as follows according to a calculation method by Colby (cf. COLBY, S. R.: “Calculating synergistic and antagonistic responses of herbicide combinations”, • Weeds 15, pages 20-22, 1967): • If X=% damage by herbicide (A) at an application rate of m g/ha, • Y=% damage by herbicide (B) at an application rate of n g/ha, • E=the expected damage by herbicides (A) and (B) at application rates of m and n […] and, • then for a combination:
(§2) Individual compositions comprising pelargonic acid or flazasulfuron are compared with a herbicide composition according to the invention comprising pelargonic acid and flazasulfuron.
(§3) Herbicidal activity was determined by performing a post-emergence test. […] The corresponding mixture was in the form of a spray liquor. Besides, spray liquors of individual compositions comprising pelargonic acid or flazasulfuron were used.
(§4) Tests were performed on test fields (field trials) or in pots (pot trials).

Matricaria chamomilla = experiment: post-emergence test, pot trial (Examples 1-5); conditions: bigger plants, 28 d, PT, pelargonic acid 10880 g/ha, 16 L/ha
Excerpt: as §1, §2, §3, §4

Poa annua [1] = experiment: post-emergence test, pot trial (Examples 1-5); conditions: 28 d, PT; pelargonic acid 10880 g/ha, flazasulfuron 50 g/ha; 16 L/ha
Excerpt: as §1, §2, §3, §4

Setaria pumila = experiment: post-emergence test, pot trial (Examples 1-5); conditions: young plants, 28 d, PT, pelargonic acid 10880 g/ha, 16 L/ha
Excerpt: as §1, §2, §3, §4

Trifolium repens [2] = experiment: post-emergence test, pot trial (Examples 1-5); conditions: 28 d, PT; pelargonic acid 10880 g/ha, flazasulfuron 50 g/ha; 16 L/ha
Excerpt: as §1, §2, §3, §4

Capsella bursa-pastoris = experiment: post-emergence field trial under rows of apple trees, 150-200 L water/ha (Examples 10-12); conditions: 20 g of active compound/ha
Protocol: (§5) Herbicidal activity was determined by performing a post-emergence test. […] The corresponding mixture was in the form of a spray solution. Besides, spray solutions of individual compositions comprising pelargonic acid or flazasulfuron were used.
(§6) The spray solution was applied on plants of unwanted vegetation present on fields where perennial crops were grown.
(§7) After 5 to 88 days after application of the spray solution, the degree of damage to the unwanted vegetation is rated in % of plants of unwanted vegetation that were killed. Tests were performed on test fields (field trials).

Chenopodium album = experiment: as above; conditions: 20 g of active compound/ha
Protocol: as §5, §6, §7

Lolium multiflorum = experiment: as above; conditions: 20 g of active compound/ha
Protocol: as §5, §6, §7

Poa annua [3] = experiment: as above; conditions: 20 g of active compound/ha
Protocol: as §5, §6, §7

Senecio vulgaris = experiment: as above; conditions: 20 g of active compound/ha
Protocol: as §5, §6, §7

Setaria viridis = experiment: as above; conditions: 20 g of active compound/ha
Protocol: as §5, §6, §7

Taraxacum officinalis = experiment: as above; conditions: 20 g of active compound/ha
Protocol: as §5, §6, §7

Trifolium repens [4] = experiment: as above; conditions: 20 g of active compound/ha
Protocol: as §5, §6, §7

Veronica persicae = experiment: as above; conditions: 20 g of active compound/ha
Protocol: as §5, §6, §7

COc1cc(OC)nc(NC(=O)NS(=O)(=O)c2ncccc2C(F)(F)F)n1 [Flazasulfuron, 1-(4,6-dimethoxypyrimidin-2-yl)-3-(3-trifluoromethyl-2-pyridylsulfonyl)urea]
herbicidal effect (Geranium dissectum; bigger plants, flazasulfuron 50 g/ha): 0%
herbicidal effect (Geranium dissectum; young plants, flazasulfuron 25 g/ha): 7%
herbicidal effect (Geranium dissectum; young plants, flazasulfuron 50 g/ha): 8%
herbicidal effect (Matricaria chamomilla; flazasulfuron 25 g/ha): 0%
herbicidal effect (Matricaria chamomilla; flazasulfuron 50 g/ha): 2%
herbicidal effect (Poa annua [1]): 0%
herbicidal effect (Setaria pumila; flazasulfuron 25 g/ha): 89%
herbicidal effect (Setaria pumila; flazasulfuron 50 g/ha): 92%
herbicidal effect (Trifolium repens [2]): 1.2%
herbicidal effect (%) (Capsella bursa-pastoris; Capsella bursa-pastoris/6 d): 16%
herbicidal effect (%) (Capsella bursa-pastoris; Capsella bursa-pastoris/16 d): 45%
herbicidal effect (%) (Capsella bursa-pastoris; Capsella bursa-pastoris/30 d): 55%
herbicidal effect (%) (Capsella bursa-pastoris; Capsella bursa-pastoris/57 d): 58%
herbicidal effect (%) (Chenopodium album; Chenopodium album/6 d): 13%
herbicidal effect (%) (Chenopodium album; Chenopodium album/16 d): 59%
herbicidal effect (%) (Chenopodium album; Chenopodium album/30 d): 63%
herbicidal effect (%) (Chenopodium album; Chenopodium album/57 d): 58%
herbicidal effect (%) (Chenopodium album; Chenopodium album/78 d): 64%
herbicidal effect (%) (Lolium multiflorum; Lolium multiflorum/5 d): 0%
herbicidal effect (%) (Lolium multiflorum; Lolium multiflorum/18 d): 79%
herbicidal effect (%) (Lolium multiflorum; Lolium multiflorum/32 d): 87%
herbicidal effect (%) (Lolium multiflorum; Lolium multiflorum/61 d): 91%
herbicidal effect (%) (Lolium multiflorum; Lolium multiflorum/88 d): 89%
herbicidal effect (%) (Poa annua [3]; Poa annua/6 d): 10%
herbicidal effect (%) (Poa annua [3]; Poa annua/16 d): 53%
herbicidal effect (%) (Poa annua [3]; Poa annua/30 d): 60%
herbicidal effect (%) (Poa annua [3]; Poa annua/57 d): 58%
herbicidal effect (%) (Poa annua [3]; Poa annua/78 d): 83%
herbicidal effect (%) (Senecio vulgaris; Senecio vulgaris/6 d): 4%
herbicidal effect (%) (Senecio vulgaris; Senecio vulgaris/28 d): 13%
herbicidal effect (%) (Senecio vulgaris; Senecio vulgaris/58 d): 18%
herbicidal effect (%) (Setaria viridis; Setaria viridis/6 d): 10%
herbicidal effect (%) (Setaria viridis; Setaria viridis/16 d): 50%
herbicidal effect (%) (Setaria viridis; Setaria viridis/30 d): 55%
herbicidal effect (%) (Setaria viridis; Setaria viridis/57 d): 53%
herbicidal effect (%) (Setaria viridis; Setaria viridis/78 d): 43%
herbicidal effect (%) (Taraxacum officinalis; Taraxacum officinalis/5 d): 0%
herbicidal effect (%) (Taraxacum officinalis; Taraxacum officinalis/18 d): 71%
herbicidal effect (%) (Taraxacum officinalis; Taraxacum officinalis/32 d): 83%
herbicidal effect (%) (Taraxacum officinalis; Taraxacum officinalis/61 d): 72%
herbicidal effect (%) (Taraxacum officinalis; Taraxacum officinalis/88 d): 71%
herbicidal effect (%) (Trifolium repens [4]; Trifolium repens/7 d): 20%
herbicidal effect (%) (Trifolium repens [4]; Trifolium repens/16 d): 40%
herbicidal effect (%) (Trifolium repens [4]; Trifolium repens/26 d): 63%
herbicidal effect (%) (Trifolium repens [4]; Trifolium repens/59 d): 68%
herbicidal effect (%) (Veronica persicae; Veronica persicae/7 d): 20%
herbicidal effect (%) (Veronica persicae; Veronica persicae/16 d): 4%
herbicidal effect (%) (Veronica persicae; Veronica persicae/26 d): 20%
herbicidal effect (%) (Veronica persicae; Veronica persicae/59 d): 0%
